Reference: the NIST ThermoML archive (doi:10.1021/je0501991)
Numbers after ± are expanded uncertainties.

Key:
[1] = molar heat capacity at constant pressure; xn = mol fraction of the nth substance listed; settings: 101 kPa, Liquid
[2] = refractive index (Na D-line) (dimensionless); xn = mol fraction of the nth substance listed; settings: 308.15 K, 101.33 kPa, Liquid, Standard Abbe refractometry
[3] = xn = mol fraction of the nth substance listed; settings: 308.15 K, 101.33 kPa, Liquid
[4] = excess molar enthalpy (molar enthalpy of mixing); xn = mol fraction of the nth substance listed; settings: 308.15 K, 101.33 kPa, Liquid

OCCCc1ccccc1 [3-phenyl-1-propanol] + C[S+](C)[O-]
molar heat capacity at constant pressure [J/K/mol], [1]
Settings | 298.15 K | 308.15 K | 318.15 K
x2 = 0 | 276.3 ± 22 | 284.1 ± 23 | 291.8 ± 23
x2 = 0.0905 | 259.9 ± 21 | 265.7 ± 21 | 273 ± 22
x2 = 0.1204 | 250.3 ± 20 | 256 ± 20 | 262.8 ± 21
x2 = 0.1712 | 243.4 ± 20 | 249.7 ± 20 | 256.2 ± 20
x2 = 0.3375 | 211.1 ± 17 | 215.5 ± 17 | 220 ± 18
x2 = 0.452 | 196.9 ± 16 | 200 ± 16 | 203.5 ± 16
x2 = 0.5571 | 185.1 ± 15 | 187.5 ± 15 | 190.7 ± 15
x2 = 0.6101 | 185.8 ± 15 | 188.7 ± 15 | 191.4 ± 15
x2 = 0.6567 | 177 ± 14 | 178.3 ± 14 | 180.9 ± 14
x2 = 0.7396 | 165.6 ± 13 | 167.2 ± 13 | 170 ± 14
x2 = 0.806 | 162.2 ± 13 | 163.9 ± 13 | 165.4 ± 13
x2 = 0.8718 | 159.2 ± 13 | 160.5 ± 13 | 161.9 ± 13
x2 = 0.9487 | 148.5 ± 12 | 149.3 ± 12 | 151.3 ± 12

Settings | excess molar enthalpy [kcal/mol] | mass density [kg/m3] | refractive index | viscosity [mPa·s]
[2], x2 = 0.0936 | – | – | 1.5188 ± 0.0007 | –
[2], x2 = 0.1499 | – | – | 1.5172 ± 0.0007 | –
[2], x2 = 0.277 | – | – | 1.5132 ± 0.0007 | –
[2], x2 = 0.3915 | – | – | 1.509 ± 0.0007 | –
[2], x2 = 0.4564 | – | – | 1.5063 ± 0.0007 | –
[2], x2 = 0.578 | – | – | 1.5008 ± 0.0007 | –
[2], x2 = 0.6526 | – | – | 1.4969 ± 0.0007 | –
[2], x2 = 0.7233 | – | – | 1.4931 ± 0.0007 | –
[2], x2 = 0.7879 | – | – | 1.489 ± 0.0007 | –
[2], x2 = 0.8512 | – | – | 1.4847 ± 0.0007 | –
[2], x2 = 0.9027 | – | – | 1.4811 ± 0.0007 | –
[2], x2 = 0.9543 | – | – | 1.4771 ± 0.0007 | –
[3], x2 = 0.0936 | – | 996.28 ± 0.49 | – | 8.592 ± 0.14
[3], x2 = 0.1499 | – | 999.45 ± 0.47 | – | 7.792 ± 0.12
[3], x2 = 0.277 | – | 1007.07 ± 0.42 | – | 6.19 ± 0.097
[3], x2 = 0.3915 | – | 1014.73 ± 0.39 | – | 5.032 ± 0.079
[3], x2 = 0.4564 | – | 1019.55 ± 0.37 | – | 4.488 ± 0.07
[3], x2 = 0.578 | – | 1029.68 ± 0.34 | – | 3.629 ± 0.056
[3], x2 = 0.6526 | – | 1036.85 ± 0.32 | – | 3.18 ± 0.048
[3], x2 = 0.7233 | – | 1044.45 ± 0.32 | – | 2.801 ± 0.042
[3], x2 = 0.7879 | – | 1052.21 ± 0.31 | – | 2.487 ± 0.038
[3], x2 = 0.8512 | – | 1060.69 ± 0.31 | – | 2.208 ± 0.033
[3], x2 = 0.9027 | – | 1068.4 ± 0.32 | – | 1.993 ± 0.03
[3], x2 = 0.9543 | – | 1076.93 ± 0.33 | – | 1.801 ± 0.027
[4], x2 = 0.0737 | -0.0543 ± 0.0012 | – | – | –
[4], x2 = 0.1373 | -0.0822 ± 0.00167 | – | – | –
[4], x2 = 0.1927 | -0.0951 ± 0.00191 | – | – | –
[4], x2 = 0.2414 | -0.103 ± 0.00215 | – | – | –
[4], x2 = 0.3232 | -0.101 ± 0.00215 | – | – | –
[4], x2 = 0.389 | -0.0946 ± 0.00191 | – | – | –
[4], x2 = 0.4885 | -0.0796 ± 0.00167 | – | – | –
[4], x2 = 0.56 | -0.0645 ± 0.00143 | – | – | –
[4], x2 = 0.6563 | -0.0423 ± 0.000956 | – | – | –
[4], x2 = 0.7413 | -0.0215 ± 0.000717 | – | – | –
[4], x2 = 0.7925 | -0.0115 ± 0.000478 | – | – | –
[4], x2 = 0.8514 | -0.00311 ± 0.000478 | – | – | –
[4], x2 = 0.8843 | 0.00167 ± 0.000478 | – | – | –
[4], x2 = 0.9162 | 0.00335 ± 0.000478 | – | – | –
[4], x2 = 0.9386 | 0.0043 ± 0.000478 | – | – | –
[4], x2 = 0.9582 | 0.00406 ± 0.000478 | – | – | –
[4], x2 = 0.9787 | 0.00263 ± 0.000478 | – | – | –
